Measured values: patent US11752116B2, “Method of viral inhibition” (priority 2013, dated 2023)

Assays:
DENV-2 NS5 / IMPαΔIBB = DENV-2 NS5 / IMPαΔIBB (Dengue virus type 2, UniProt P14340); assay: AlphaScreen binding of His6-NS5 to IMPαΔIBB
Experimental: To investigate the specificity of 4-HPR inhibition of NS5-importin association, the binding of 30 nM His6-NS5 to 10 nM IMPα/β, (IMPα/β heterodimer containing biotinylated IMPβ1), 3 nM IMPαΔIBB (biotinylated IMPa with the IMPβ-binding domain removed), or 3 nM biotinylated IMPβ1, in the presence of increasing concentrations of 4-HPR, was investigated.

DENV-1 [1] = assay: Cell-based flavivirus immunodetection assay in BHK-21 cells, DENV-1; conditions: MOI of 0.3, 48 h p.i.
Experimental: (§1) To investigate this, BHK-21 cells were infected with DENV serotypes 1, 2, 3 or 4 (MOI of 0.3) for 1 h in the presence of 4-HPR or 4-MPR (concentrations as indicated in FIG. 6A). Virus inoculum was removed and fresh media containing the indicated compounds was added. Virus infection rates were determined 48 h p.i. using a cell-based flavivirus immunodetection assay. Briefly, cells were fixed and stained for DENV structural protein, E, followed by addition of Alexa Fluor 488 anti-mouse IgG. Viral antigen quantification was performed using Imagexpress. Data shown are representative of a single experiment

DENV-3 = assay: Plaque assay in Huh-7 cells, DENV-3; type: cell-based; conditions: Dengue virus, DENV3, Huh-7, 48 h, read-out: EC50, infectious virus titre DENV 3
Experimental: (§2) To ensure the antiviral activity of 4-HPR is not cell-line specific Huh-7 cells were also infected with DENV-1, 2, 3 or 4 (MOI of 0.3) in the presence of increasing concentrations of 4-HPR, with infectious virus titres determined by plaque assay at 48 h p.i.

DENV-1 [2] = assay: ADE-mediated DENV-1 infection of THP-1 cells, plaque assay; type: cell-based; conditions: Dengue virus, DENV1, THP-1, 48 h, read-out: EC50, ADE-mediated DENV-1 infection
Text: In a cell culture model of antibody-dependent enhanced (ADE) DENV infection, THP-1 human monocyte cells infected with DENV-1 in the presence of sub-neutralising levels of a humanized version of the 4G2 antibody, which is cross-reactive with flavivirus envelope proteins (Paradkar et al., 2010 Bio Sci Rep.), show increased virus production compared to cells infected with virus alone. This model mimics the ADE phenomenon thought to occur in patients infected with a second serotype of DENV, which is associated with more severe DENV disease.
Briefly, humanized 4G2 antibody (0.05 μg/ml) was combined with DENV-1 (MOI of 10), and 4-HPR (concentrations as indicated in FIG. 7) in serum-free media, and incubated on ice for 1 h for the immune complex to form. Immune complex inoculums were added to THP-1 cells and incubated for 48 h. Supernatants were collected after 2 days and infectious virus production was quantified by plaque assay.

DENV-2 [3] = assay: Delayed addition in DENV-2 infected Huh-7 cells, NS1 RNA by qPCR; type: cell-based; conditions: 7.5 μM added 12 h p.i., at 24 h p.i.
Experimental: (§3) To gain further insight into the mode of action of 4-HPR, the human liver carcinoma cell line, Huh-7 cells were infected with DENV-2 (MOI of 1), followed by delayed addition of drug diluent DMSO (DENV only), 7.5 μM 4-HPR, 7.5 μM 4-MPR or 10 μM NITD008 (a previously described adenosine nucleoside inhibitor), 12 h post infection. Cells were lysed at the indicated times, RNA was extracted by Trizol and analysed by qPCR with fold change in expression of NS1 calculated relative to the untreated control (FIG. 5B). Concurrently, culture medium was collected and viral titres determined by plaque assay (FIG. 5C).

DENV-2 strain (S221) = assay: Lethal mouse infection model, AG129 mice infected with mouse adapted DENV-2 strain S221; type: in vivo; conditions: 20 mg/kg orally
Text: Mice have previously been used as an in vivo model for 4-HPR pharmacokinetics. To examine the effect of 4-HPR on DENV infection in vivo, a lethal mouse infection model, which uses a mouse adapted DENV-2 strain (S221), to infect Sv/129 mice deficient in type I and II interferon receptors (AG129) was used (Zellweger et al., 2010, Cell Host Microbe). Viral infection in this system is enhanced by intraperitoneal delivery of a sub-neutralizing concentration of 4G2 antibody 1 day prior to infection, resulting in peak viremia 3 days p.i. and death of infected mice by day 5. Here, mice were treated with 20 mg/kg of 4-HPR, administered orally at the time of infection, then once (QD) or twice (BID) daily for 5 consecutive days. Consistent with previous reports, infected, untreated mice all died by day 5 (FIG. 8B). Once daily treatment of mice with 4-HPR was sufficient to provide protection to 20% of mice, which recovered from the infectious challenge, whereas increasing the dose to 2 treatments daily, improved protection to 70% (7 of 10 mice recovered from the infectious challenge).
Data are the mean+SEM. Statistical analysis (Student's t test) was performed using Graph Pad Prism software (ns, not significant).

[4] = up to 4,000 mg/m^2/day, daily for 28 days, including in children; cited from earlier work
[5] = Cytotoxicity analysis in PBMCs; type: cell-based; conditions: human
[6] = test system: West Nile virus, Kunjin strain (WNVKUN); assay: West Nile virus (Kunjin strain) infection of Vero cells, plaque assay; type: cell-based; conditions: 10 μM, 4 h incubation of Vero cells at the time of infection
Experimental: FIG. 9C. Viral titre from a plaque assay conducted from Vero cells infected with West Nile virus (Kunjin strain; WNVKUN) after treatment with 10 μM 4-HPR for 4 h.

DENV-2 [7] = assay: Cell-based flavivirus immunodetection assay in BHK-21 cells, DENV-2; conditions: Dengue virus, DENV2, BHK-21, 48 h, read-out: EC50, DENV-2 replication
Experimental: as §1

DENV-4 [8] = assay: Cell-based flavivirus immunodetection assay in BHK-21 cells, DENV-4; conditions: Dengue virus, DENV4, BHK-21, 48 h, read-out: EC50, DENV-4 replication
Experimental: as §1

DENV-2 [9] = assay: Delayed addition in DENV-2 infected Huh-7 cells, viral titre by plaque assay; type: cell-based; conditions: 7.5 μM added 12 h p.i., at 60 h p.i.
Experimental: as §3

DENV-4 [10] = assay: Plaque assay in Huh-7 cells, DENV-4; type: cell-based; conditions: Dengue virus, DENV4, Huh-7, 48 h, read-out: EC50, infectious virus titre DENV 4
Experimental: as §2

Which results are given for `CC1=C(/C=C/C(C)=C/C=C/C(C)=C/C(=O)Nc2ccc(O)cc2)C(C)(C)CCC1` [4-HPR, N-(4-hydroxyphenyl) retinamide]?
IC50 (DENV-2 NS5 / IMPαΔIBB): 1.6 µM; EC50, DENV-1 replication (DENV-1 [1]): low EC50; EC50 (DENV-3): 1.4 µM; EC50 (DENV-1 [2]): 0.85 µM; reduction in viral RNA levels (NS1 qPCR) (DENV-2 [3]): 1 log; average plasma viral titre lower than untreated group, 3 days p.i. (DENV-2 strain (S221); BID treatment group): 65%; average plasma viral titre 3 days p.i. (DENV-2 strain (S221); QD treatment group): small reduction; protection (mice recovered from the infectious challenge) (DENV-2 strain (S221); once daily (QD) for 5 days): 20%; protection (mice recovered from the infectious challenge) (DENV-2 strain (S221); twice daily (BID) for 5 days): 70%; toxicity profile in cancer treatment [4]: favourable toxicity profiles; CC50 at 48 h [5]: > 13 µM; reduction in infectious virus produced (WNVKUN) [6]: 89%; EC50 (DENV-2 [7]): 2.24 µM; EC50 (DENV-4 [8]): 0.84 µM; virus titre lower than untreated and 4-MPR-treated controls (DENV-2 [9]): 3 logs; EC50 (DENV-4 [10]): 2.1 µM
